Results reported in the supplement of paper PMC11208160.

Assay: recombinant barcode read abundance after kanamycin selection (control-corrected) (log10(CPM+1)); higher = more efficient recombination; sequences stand for … in AGTGCAGAGAAAATCGGCCAGTTTTCTCTGCCTGCAGTCCGCATGCCGT…AGATTTATGCAGCGGACTGCCTTTCTCCCAAAGTGATAAACCGGACAGTATCATGGACCGGTTTTCCCGGTAATCCGTATTTGCAAGGTTGGTTTCACT; site = the 11-nt target
Procedure: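 Pooled E. coli target-specificity screen for the IS621 bridge recombinase. Each library plasmid pairs an 11-nt target (CT core) with a bridge RNA whose target-binding loop (9-nt LTG + 4-nt RTG) is reprogrammed; the rest of the 177-nt WT IS621 bridge RNA scaffold is fixed. The plasmid is co-electroporated with a WT donor plasmid; recombinase is induced with 0.1 mM IPTG and recombinants are selected on kanamycin. Recombinant barcodes are sequenced, converted to CPM, averaged over two biological replicates and corrected by the unselected control CPM. Molecule = full bridge RNA written as DNA: LTG = specificity nt 1-9, RTG = reverse complement of specificity nt 8-11, in the WT scaffold.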
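Note: IS621 recombinase and bridge RNA in Escherichia coli cells.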

AACTTTCCTTGGGTTCTAACCTGTTGCAT (site AACTTTCCTAT)
recombinant barcode read abundance (log10): 0.259

AAGAAGCCTTGGGTTCTAACCTGTTGCCT (site AAGAAGCCTAG)
recombinant barcode read abundance (log10): 2.01

AAGAAGCCTTGGGTTCTAACCTGTTGCCT (site CAGAAGCCTAG)
recombinant barcode read abundance (log10): 0.717

AAGAAGCCTTGGGTTCTAACCTGTTGCCT (site GAGAAGCCTAG)
recombinant barcode read abundance (log10): 0.14

AAGAAGCCTTGGGTTCTAACCTGTTGCCT (site TAGAAGCCTAG)
recombinant barcode read abundance (log10): 0.337

AAGAATACTTGGGTTCTAACCTGTTGCCT (site AAGAATACTAG)
recombinant barcode read abundance (log10): 1.16

AAGAATACTTGGGTTCTAACCTGTTGCCT (site GAGAATACTAC)
recombinant barcode read abundance (log10): 0.011

AAGACATCTTGGGTTCTAACCTGTTGCTT (site AAGACATCTAA)
recombinant barcode read abundance (log10): 1.19

AAGACATCTTGGGTTCTAACCTGTTGCTT (site TAGACATCTAT)
recombinant barcode read abundance (log10): 0.24

AAGAGTCCTTGGGTTCTAACCTGTTGCGT (site AAAAGTCCTAG)
recombinant barcode read abundance (log10): 0.423

AAGAGTCCTTGGGTTCTAACCTGTTGCGT (site AAGAGTCCTAC)
recombinant barcode read abundance (log10): 2.55

AAGATACCTTGGGTTCTAACCTGTTGCTT (site AAGATACCTAA)
recombinant barcode read abundance (log10): 1.29

AAGATACCTTGGGTTCTAACCTGTTGCTT (site AAGATACCTCA)
recombinant barcode read abundance (log10): 0.36

AAGATGTCTTGGGTTCTAACCTGTTGCTG (site AAGATGTCTCA)
recombinant barcode read abundance (log10): 1.74

AAGATGTCTTGGGTTCTAACCTGTTGCTG (site TAGAAGTCTCA)
recombinant barcode read abundance (log10): 0.0558

AAGATTCCTTGGGTTCTAACCTGTTGCCT (site AAGATTCCTAG)
recombinant barcode read abundance (log10): 0.575

AAGATTCCTTGGGTTCTAACCTGTTGCCT (site ACGATTCCTAG)
recombinant barcode read abundance (log10): 0.0379

AAGATTCCTTGGGTTCTAACCTGTTGCCT (site AGGATTCCTAG)
recombinant barcode read abundance (log10): 0.111

AAGATTCCTTGGGTTCTAACCTGTTGCCT (site ATGATTCCTAG)
recombinant barcode read abundance (log10): 0.217

AAGCATGCTTGGGTTCTAACCTGTTGCTA (site AAGCATGCTTA)
recombinant barcode read abundance (log10): 0.883

AAGCATGCTTGGGTTCTAACCTGTTGCTA (site CTCTTAACTCC)
recombinant barcode read abundance (log10): 0.0074

AAGCCAACTTGGGTTCTAACCTGTTGCCT (site AAGCAAACTAG)
recombinant barcode read abundance (log10): 0.294

AAGCCAACTTGGGTTCTAACCTGTTGCCT (site AAGCCAACTAG)
recombinant barcode read abundance (log10): 1.19

AAGCCAACTTGGGTTCTAACCTGTTGCCT (site AAGCGAACTAG)
recombinant barcode read abundance (log10): 0.181

AAGCCAACTTGGGTTCTAACCTGTTGCCT (site AAGCTAACTAG)
recombinant barcode read abundance (log10): 0.172

AAGCCCTCTTGGGTTCTAACCTGTTGCTT (site AAGACCTCTAA)
recombinant barcode read abundance (log10): 0.144

AAGCCCTCTTGGGTTCTAACCTGTTGCTT (site AAGCCCTCTAA)
recombinant barcode read abundance (log10): 2.53

AAGCCCTCTTGGGTTCTAACCTGTTGCTT (site AAGGCCTCTAA)
recombinant barcode read abundance (log10): 0

AAGCCCTCTTGGGTTCTAACCTGTTGCTT (site AAGTCCTCTAA)
recombinant barcode read abundance (log10): 0.0167

AAGCCTTCTTGGGTTCTAACCTGTTGCTG (site AAGCCTTCTCA)
recombinant barcode read abundance (log10): 1.68

AAGCCTTCTTGGGTTCTAACCTGTTGCTG (site GAGCCTTCTCT)
recombinant barcode read abundance (log10): 0.236

AAGCGAACTTGGGTTCTAACCTGTTGCCT (site AAGCAAACTAG)
recombinant barcode read abundance (log10): 0.274

AAGCGAACTTGGGTTCTAACCTGTTGCCT (site AAGCCAACTAG)
recombinant barcode read abundance (log10): 0.238

AAGCGAACTTGGGTTCTAACCTGTTGCCT (site AAGCGAACTAG)
recombinant barcode read abundance (log10): 2.07

AAGCGAACTTGGGTTCTAACCTGTTGCCT (site AAGCTAACTAG)
recombinant barcode read abundance (log10): 0.319

AAGCTAACTTGGGTTCTAACCTGTTGCCT (site AAGCAAACTAG)
recombinant barcode read abundance (log10): 0.044

AAGCTAACTTGGGTTCTAACCTGTTGCCT (site AAGCCAACTAG)
recombinant barcode read abundance (log10): 0.299

AAGCTAACTTGGGTTCTAACCTGTTGCCT (site AAGCGAACTAG)
recombinant barcode read abundance (log10): 0.248

AAGCTAACTTGGGTTCTAACCTGTTGCCT (site AAGCTAACTAG)
recombinant barcode read abundance (log10): 1.77

AAGGCCTCTTGGGTTCTAACCTGTTGCCA (site AAGGCCTCTAT)
recombinant barcode read abundance (log10): 0.0333

AAGGCCTCTTGGGTTCTAACCTGTTGCCA (site AAGGCCTCTTG)
recombinant barcode read abundance (log10): 1.88

AAGGCCTCTTGGGTTCTAACCTGTTGCTT (site AAGACCTCTAA)
recombinant barcode read abundance (log10): 0.775

AAGGCCTCTTGGGTTCTAACCTGTTGCTT (site AAGCCCTCTAA)
recombinant barcode read abundance (log10): 0.156

AAGGCCTCTTGGGTTCTAACCTGTTGCTT (site AAGGCCTCTAA)
recombinant barcode read abundance (log10): 2.74

AAGGCCTCTTGGGTTCTAACCTGTTGCTT (site AAGTCCTCTAA)
recombinant barcode read abundance (log10): 0.058

AAGGGCCCTTGGGTTCTAACCTGTTGCCT (site AAGGGCCCTAG)
recombinant barcode read abundance (log10): 2.1

AAGGGCCCTTGGGTTCTAACCTGTTGCCT (site CAGGGCCCTAG)
recombinant barcode read abundance (log10): 0.339

AAGGGCCCTTGGGTTCTAACCTGTTGCCT (site GAGGGCCCTAG)
recombinant barcode read abundance (log10): 0.122

AAGGGCCCTTGGGTTCTAACCTGTTGCCT (site TAGGGCCCTAG)
recombinant barcode read abundance (log10): 2.24

AAGGGCGCTTGGGTTCTAACCTGTTGCCT (site AAGGACGCTAG)
recombinant barcode read abundance (log10): 0.618

AAGGGCGCTTGGGTTCTAACCTGTTGCCT (site AAGGCCGCTAG)
recombinant barcode read abundance (log10): 0.238

AAGGGCGCTTGGGTTCTAACCTGTTGCCT (site AAGGGCGCTAG)
recombinant barcode read abundance (log10): 1.49

AAGGGCGCTTGGGTTCTAACCTGTTGCCT (site AAGGTCGCTAG)
recombinant barcode read abundance (log10): 0.261

AAGGGGCCTTGGGTTCTAACCTGTTGCCT (site AAGGGGCCTAG)
recombinant barcode read abundance (log10): 1.8

AAGGGGCCTTGGGTTCTAACCTGTTGCCT (site CGATCTACTCT)
recombinant barcode read abundance (log10): 0.271

AAGGGGTCTTGGGTTCTAACCTGTTGCTT (site AAGGGGTCTAA)
recombinant barcode read abundance (log10): 3.02

AAGGGGTCTTGGGTTCTAACCTGTTGCTT (site ATGGGGTCTAA)
recombinant barcode read abundance (log10): 0.898

AAGGTCGCTTGGGTTCTAACCTGTTGCCT (site AAGGACGCTAG)
recombinant barcode read abundance (log10): 0.33

AAGGTCGCTTGGGTTCTAACCTGTTGCCT (site AAGGCCGCTAG)
recombinant barcode read abundance (log10): 1.14

AAGGTCGCTTGGGTTCTAACCTGTTGCCT (site AAGGGCGCTAG)
recombinant barcode read abundance (log10): 0.347

AAGGTCGCTTGGGTTCTAACCTGTTGCCT (site AAGGTCGCTAG)
recombinant barcode read abundance (log10): 2.45

AAGTATCCTTGGGTTCTAACCTGTTGCGG (site AAGTATCCTCC)
recombinant barcode read abundance (log10): 2.02

AAGTATCCTTGGGTTCTAACCTGTTGCGG (site AGGGATCCTCC)
recombinant barcode read abundance (log10): 0.349

AAGTATTCTTGGGTTCTAACCTGTTGCGT (site AAGTATTCTAC)
recombinant barcode read abundance (log10): 2.23

AAGTATTCTTGGGTTCTAACCTGTTGCGT (site TAGTCTTCTAC)
recombinant barcode read abundance (log10): 0.022

AAGTCCTCTTGGGTTCTAACCTGTTGCTG (site AAGTCCTCTCA)
recombinant barcode read abundance (log10): 1.43

AAGTCCTCTTGGGTTCTAACCTGTTGCTG (site CTAAGGCCTAT)
recombinant barcode read abundance (log10): 0.442

AAGTCCTCTTGGGTTCTAACCTGTTGCTT (site AAGACCTCTAA)
recombinant barcode read abundance (log10): 0.0682

AAGTCCTCTTGGGTTCTAACCTGTTGCTT (site AAGCCCTCTAA)
recombinant barcode read abundance (log10): 0.682

AAGTCCTCTTGGGTTCTAACCTGTTGCTT (site AAGGCCTCTAA)
recombinant barcode read abundance (log10): 0.153

AAGTCCTCTTGGGTTCTAACCTGTTGCTT (site AAGTCCTCTAA)
recombinant barcode read abundance (log10): 1.48

AAGTCGACTTGGGTTCTAACCTGTTGCCT (site AAGTCGACTAG)
recombinant barcode read abundance (log10): 0.76

AAGTCGACTTGGGTTCTAACCTGTTGCCT (site AAGTGGACTAG)
recombinant barcode read abundance (log10): 0.0428

AAGTGAGCTTGGGTTCTAACCTGTTGCCA (site AAGTGAGCTTG)
recombinant barcode read abundance (log10): 0.408

AAGTGAGCTTGGGTTCTAACCTGTTGCCA (site CTCCTCTCTAT)
recombinant barcode read abundance (log10): 0.0964

AAGTTTACTTGGGTTCTAACCTGTTGCCT (site AAGTTTACTAA)
recombinant barcode read abundance (log10): 0.0435

AAGTTTACTTGGGTTCTAACCTGTTGCCT (site AAGTTTACTAG)
recombinant barcode read abundance (log10): 0.0875

AATAAGACTTGGGTTCTAACCTGTTGCCA (site AATAAGACTTG)
recombinant barcode read abundance (log10): 0.65

AATAAGACTTGGGTTCTAACCTGTTGCCA (site AATAGGACTTA)
recombinant barcode read abundance (log10): 0.134

AATAAGTCTTGGGTTCTAACCTGTTGCAT (site AATAAGTCTAT)
recombinant barcode read abundance (log10): 0.385

AATAAGTCTTGGGTTCTAACCTGTTGCAT (site CTCGCTCCTCA)
recombinant barcode read abundance (log10): 0.0524

AATAGGCCTTGGGTTCTAACCTGTTGCGT (site AATAGGCCTAC)
recombinant barcode read abundance (log10): 1.6
